Target: MAT2A (Homo sapiens, UniProt P31153)
Assay: MAT2A Biochemical Assay
Details: 1 uM start, 3-fold dilution, 10 doses; Biomol Green, O.D.620; read-out: MAT2A enzymatic IC50
Method: Example A: MAT2A Biochemical Assay
Compounds described herein were tested as follows:
(1). Prepared 1× Assay buffer.
(2). Preparation of compound concentration gradient: the compounds test condition were 1 uM start, 3-fold dilution, 10 doses, singlet or duplicate. 100× concentration compounds were prepared in 384-well plate. Then used Echo 550 to transfer 250 nl to a 384-reaction plate for later use. Added 250 nl of 100% DMSO to the negative and positive control wells.
(3). Prepared 1.67× final concentration enzyme solution with 1× Assay buffer.
(4). Added 15 μl of 1.67× Enzyme solution to the compound wells and positive control wells; added 15 μl of 1× Assay buffer to the negative control wells.
(5). Centrifuged at 1000 rpm for 30 seconds and incubate for 15 minutes.
(6). Prepared 2.5× final concentration Substrate mix solution with 1× Assay buffer.
(7). Added 10 μl of 2.5× final concentration Substrate mix solution to start the reaction.
(8). Centrifuged at 1000 rpm for 30 seconds and incubate for 150 minutes.
(9). Added 50 μl Biomol Green to stop the reaction, centrifuge at 1000 rpm for 30 seconds and incubate for 15 minutes, read O.D.620, process data.
(1) Using GraphPad Prism 5.
(2) % Inh=(Max signal−Compound signal)/(Max signal−Min signal)*100.
(3) Max signal was obtained from the positive control wells.
(4) Min signal was obtained from the negative control wells.

Chain of MAT2A (P31153 whole entry, species assumed): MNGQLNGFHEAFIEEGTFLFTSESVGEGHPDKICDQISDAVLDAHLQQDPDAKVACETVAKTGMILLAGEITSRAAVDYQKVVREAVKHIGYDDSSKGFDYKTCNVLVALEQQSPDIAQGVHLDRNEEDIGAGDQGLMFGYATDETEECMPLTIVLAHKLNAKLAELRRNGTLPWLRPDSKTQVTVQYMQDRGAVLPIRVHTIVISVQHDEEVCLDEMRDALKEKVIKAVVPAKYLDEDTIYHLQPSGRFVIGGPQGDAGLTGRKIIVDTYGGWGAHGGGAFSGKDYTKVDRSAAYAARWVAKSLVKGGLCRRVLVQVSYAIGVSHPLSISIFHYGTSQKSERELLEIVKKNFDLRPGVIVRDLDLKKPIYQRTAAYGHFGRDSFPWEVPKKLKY

| SMILES | IC50 [nM] |
| --- | --- |
| C#CCOc1nc(=O)n(-c2cccnc2)c2cc(Cl)ccc12 [Example 9, 7-chloro-4-(prop-2-yn-1-yloxy)-1-(pyridin-3-yl)quinazolin-2(1H)-one] | 100 to 500 |
| CN(C)CC#CCNc1nc(=O)n(-c2cccnc2)c2cc(Cl)ccc12 [Example 3, 7-chloro-4-((4-(dimethylamino)but-2-yn-1-yl)amino)-1-(pyridin-3-yl)quinazolin-2(1H)-one] | 50 to 100 |
| C#CC1(O)CN(c2nc(=O)n(-c3ccccc3Cl)c3cc(Cl)ccc23)C1 [Example 12, 7-chloro-1-(2-chlorophenyl)-4-(3-ethynyl-3-hydroxyazetidin-1-yl)quinazolin-2(1H)-one] | 100 to 500 |
| C#CC1CCCN(c2nc(=O)n(-c3ccccc3Cl)c3cc(Cl)ccc23)C1 (stereo not drawn) [Example 11, 7-chloro-1-(2-chlorophenyl)-4-(3-ethynylpiperidin-1-yl)quinazolin-2(1H)-one] | 100 to 500 |
| C#CCNc1nc(=O)n(-c2cccnc2)c2cc(C(F)(F)F)ncc12 [Example 58, 4-(prop-2-yn-1-ylamino)-1-(pyridin-3-yl)-7-(trifluoromethyl)pyrido[4,3-d]pyrimidin-2(1H)-one] | 100 to 500 |
| C#CCNc1nc(=O)n(-c2cncnc2)c2cc(Cl)ccc12 [Example 71, 7-chloro-4-(prop-2-yn-1-ylamino)-1-(pyrimidin-5-yl)quinazolin-2(1H)-one] | 100 to 500 |
| NC/C=C/CNc1nc(=O)n(-c2cccnc2)c2cc(C(F)(F)F)ccc12 [Example 79, (E)-4-((4-aminobut-2-en-1-yl)amino)-1-(pyridin-3-yl)-7-(trifluoromethyl)quinazolin-2(1H)-one] | 100 to 500 |

Further lines, results first:

| IC50 [nM] | SMILES |
| --- | --- |
| 100 to 500 | C#CCNc1nc(=O)n(-c2cc(C)cnc2C)c2cc(C(F)(F)F)ccc12 [Example 44, 1-(2,5-dimethylpyridin-3-yl)-4-(prop-2-yn-1-ylamino)-7-(trifluoromethyl)quinazolin-2(1H)-one] |
| 50 to 100 | C#CC1(Nc2nc(=O)n(-c3cccnc3C)c3cc(C(F)(F)F)cc(OC(F)F)c23)CC1 [Example 41, 5-(difluoromethoxy)-4-((1-ethynylcyclopropyl)amino)-1-(2-methylpyridin-3-yl)-7-(trifluoromethyl)quinazolin-2(1H)-one] |
| 50 to 100 | C=CC1(Nc2nc(=O)n(-c3cccnc3C)c3cc(C(F)(F)F)cc(OC)c23)CC1 [Example 78] |
| 100 to 500 | C#CC1(Nc2nc(=O)n(-c3cccnc3)c3cc(C(F)(F)F)ncc23)CC1 [Example 60, 4-((1-ethynylcyclopropyl)amino)-1-(pyridin-3-yl)-7-(trifluoromethyl)pyrido[4,3-d]pyrimidin-2(1H)-one] |
| 50 to 100 | C#CCNc1nc(=O)n(-c2cccnc2)c2cc(C(F)(F)F)cc(OC(F)F)c12 [Example 39, 5-(difluoromethoxy)-4-(prop-2-yn-1-ylamino)-1-(pyridin-3-yl)-7-(trifluoromethyl)quinazolin-2(1H)-one] |
| 500 to 1000 | C#CCNc1nc(=O)n(-c2cccnc2)c2cc(C(F)(F)F)cnc12 [Example 55, 4-(prop-2-yn-1-ylamino)-1-(pyridin-3-yl)-7-(trifluoromethyl)pyrido[3,2-d]pyrimidin-2(1H)-one] |
| 100 to 500 | C#CC(C)Nc1nc(=O)n(-c2cccnc2)c2cc(C(F)(F)F)ncc12 (stereo not drawn) [Example 59, 4-(but-3-yn-2-ylamino)-1-(pyridin-3-yl)-7-(trifluoromethyl)pyrido[4,3-d]pyrimidin-2(1H)-one] |
| 50 to 100 | C#CCNc1nc(=O)n(-c2cnccn2)c2cc(C(F)(F)F)cc(F)c12 [Example 32, 5-fluoro-4-(prop-2-yn-1-ylamino)-1-(pyrazin-2-yl)-7-(trifluoromethyl)quinazolin-2(1H)-one] |
| 100 to 500 | C#CCNc1nc(=O)n(-c2cnn(C)c2)c2cc(C(F)(F)F)ccc12 [Example 72, 1-(1-methyl-1H-pyrazol-4-yl)-4-(prop-2-yn-1-ylamino)-7-(trifluoromethyl)quinazolin-2(1H)-one] |
| 50 to 100 | C#CC1(Nc2nc(=O)n(-c3cccnc3)c3nc(C(F)(F)F)ncc23)CC1 [Example 62, 4-((1-ethynylcyclopropyl)amino)-1-(pyridin-3-yl)-7-(trifluoromethyl)pyrimido[4,5-d]pyrimidin-2(1H)-one] |
| 50 to 100 | C#CC1(Nc2nc(=O)n(-c3cccnc3C)c3nc(C(F)(F)F)cc(OC)c23)CC1 [Example 43, 4-((1-ethynylcyclopropyl)amino)-5-methoxy-1-(2-methylpyridin-3-yl)-7-(trifluoromethyl)pyrido[2,3-d]pyrimidin-2(1H)-one] |
